According to PubChem BioAssay AID179 (DTP/NCI, 2004):
Activity calls are given as the source filed them.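 How the source made its calls: active means compounds giving half or more protection of infected cells from virus-caused growth loss, again on retest; inactive means the rest.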

System: CEM cells HIV-1 protection, formazan growth assay
Assay: NCI AIDS Antiviral Assay
Settings: for IC50: measured here: growth of uninfected CEM cells
Summary of the method: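 Screen of anti-HIV-1 activity in human CEM cells using a formazan-based growth measurement at five drug concentrations. Hits with 50% or greater protection were repeated, and confirmation required reproducible complete protection.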

Row | SMILES | EC50 | IC50 | outcome
1 | COC(=O)C1Cc2ccc3c(c2C1=O)CCCC3 (stereo not given) | > 200 µM | 186 µM | –
2 | O=C(O)C(Oc1ccc2cc(Br)ccc2c1)C(=O)O | – | – | inactive
3 | COC(=O)c1cc(C(=Cc2c(F)c(F)c(F)c(F)c2F)c2cc(Cl)c(OC)c(C(=O)OC)c2)cc(Cl)c1OC | > 17.4 µM | > 17.4 µM | –
4 | C[N+]1([O-])CCOCC1 | > 200 µM | > 200 µM | –
5 | Cc1ccccc1N1C(=O)[N+]2(CCCCC2)N=C1[O-] | > 955 µM | 295 µM | –
6 | NC(=O)c1nnsc1NC=O | > 200 µM | > 200 µM | –
7 | NCC(=O)Nc1ccc(S(=O)(=O)O)c2cc(S(=O)(=O)O)cc(S(=O)(=O)O)c12 | > 200 µM | > 200 µM | –
8 | CNc1ncnc2c1ncn2C1OC(CO)C(O)C1O (stereo not given) | – | – | inactive
9 | O=C1c2ccccc2C2(O)N(c3ccccc3)C(=S)N(c3ccccc3)C12O (stereo not given) | > 646 µM | 316 µM | –
10 | CC(C)(CC(O)C#N)/[N+]([O-])=[N+](\[O-])C(C)(C)CC(O)C#N (stereo not given) | – | – | inactive
11 | c1ccc2[nH]c(-c3nc4ccccc4o3)nc2c1 | > 15.8 µM | > 15.8 µM | –
12 | COC(=O)N1CC2CC=CC(C2)c2ccccc21 (stereo not given) | > 204 µM | > 204 µM | –
13 | COC(=O)C1(C)NCCc2c1[nH]c1ccccc21 (stereo not given) | > 331 µM | > 331 µM | –
14 | CN=C(N)c1ncn(C2OC(CO)C(O)C2O)n1 (stereo not given) | – | – | inactive
15 | O=C(CCCC(=O)Nc1ccc(Cl)cc1Cl)CC(=O)c1ccc2ccccc2c1 | > 417 µM | > 417 µM | –
16 | C=CCn1c(N)c(N=O)c(=O)n(CC)c1=O | > 200 µM | > 200 µM | –
17 | CC(CO)(CO)N1C(=O)C2C3c4ccccc4C(c4ccccc43)C2C1=O (stereo not given) | > 200 µM | > 200 µM | –
18 | O=C(/C=C/c1ccccc1Br)c1ccccc1 | > 200 µM | 3.16 µM | –
19 | Cc1cc2nc3n[nH]c(N)c3nc2cc1C | > 200 µM | > 200 µM | –
20 | S=C1SCN(C(c2ccccc2)c2ccccc2)CN1C(c1ccccc1)c1ccccc1 | > 200 µM | 4.47 µM | –
21 | O=S(OC12CC3CC(CC(C3)C1)C2)c1cc(Cl)cc(Cl)c1OCc1ccccc1 (stereo not given) | – | – | inactive
22 | O=C(OCCO)C1CC2CC1C1(C2)OCCO1 (stereo not given) | – | – | inactive
23 | CC12CCC3(C1)[C@H](CC2=O)C[C@@H](OC(=O)c1ccccc1)C1C(C)(CO)CCC[C@@]13C (stereo not given in full) | > 44.7 µM | 0.891 µM | –
24 | O=C1C(=O)C(c2ccccc2)S(=O)(=O)C1c1ccccc1 (stereo not given) | – | – | inactive

Row | SMILES | EC50 | IC50 | outcome
25 | CCOC(=O)C/C(O)=C(/C=N/C(=S)NNC(C)=O)C(=O)OCC | > 200 µM | > 200 µM | –
26 | CC1CC2=C(C(=O)O1)C(c1ccccc1)Nc1ccccc1N2 (stereo not given) | > 427 µM | 81.3 µM | –
27 | COC(=O)CC1C2CC3C(C2=O)C13 (stereo not given) | > 200 µM | > 200 µM | –
28 | C/C(O)=C(\C=N/C(=S)Nc1ccccc1)C(=O)Nc1ccccc1 | > 200 µM | > 200 µM | –
29 | O=S(Cc1ccccc1)/C(=C/NC(=S)Nc1ccccc1)c1ccccc1 (stereo not given) | 182 µM | > 200 µM | –
30 | Cc1cc(/C=C2\C=Cc3ccccc32)ccc1N(C)C | > 38 µM | > 38 µM | –
31 | CSCc1nc2ccccc2c(C)[n+]1[O-] | > 200 µM | > 200 µM | –
32 | S=C(NNC1=NCCCN1)Nc1ccccc1 | > 200 µM | 12.6 µM | –
33 | CCN1C(=O)CS/C1=N\NC(=O)CSc1nc2ccccc2c(=O)n1CC | > 200 µM | 151 µM | –
34 | CNC(=O)c1ncn(C2OC(CO)C(O)C2O)n1 (stereo not given) | > 200 µM | > 200 µM | –
35 | CCOP(=O)(OCC)/C(C#N)=C/c1ccc(C#N)cc1 | > 123 µM | > 123 µM | –
36 | CCOC(=O)C1(C)CCC(C(=O)OC)C1=O (stereo not given) | > 794 µM | 52.5 µM | –
37 | CCOC(=O)c1nc(C)c(-c2ccccc2)c(-c2ccccc2)c1C | > 11.5 µM | > 11.5 µM | –
38 | Brc1ccc(N2N=NC3CN(c4ccccc4)CC32)cc1 (stereo not given) | > 100 µM | 58.9 µM | –
39 | N#CC(O)CCOCc1ccccc1 (stereo not given) | > 200 µM | 53.7 µM | –
40 | O=C(NCC(O)COc1ccccc1)c1ccccc1O (stereo not given) | > 200 µM | 115 µM | –
41 | COc1ccccc1N1CCN(CCc2c[nH]c3cc4c(cc23)OCO4)CC1 | > 132 µM | 7.41 µM | –
42 | CNC(=S)SSSSC(=S)NC | – | – | inactive
43 | O=C(NCCOC(=O)OCCNC(=O)NC1CCCCC1)NC1CCCCC1 | > 200 µM | > 200 µM | –
44 | CCOC(=O)c1c2c(n3ccccc13)C(=O)C(C)(C(=O)OCC)S2 (stereo not given) | – | – | active
45 | CCC1(O)C(=O)OCc2c1cc1n(c2=O)Cc2cc3cc4c(cc3nc2-1)OCO4 (stereo not given) | > 0.1 µM | 0.00562 µM | –
46 | COc1ccc(N=NC(=O)NC(CC(C)C)C(=O)NCC(=O)O)cc1 (stereo not given) | > 200 µM | 3.72 µM | –
47 | c1ccc(Cc2ccc(SSc3ccc(Cc4ccccc4)cc3)cc2)cc1 | > 200 µM | 26.9 µM | –
